pIC50: −log10 of the molar value. Counter-ions that a name gives are not always drawn.

The target in the first series is T1, ABCG2 (Homo sapiens, UniProt Q9UNQ0).
T1 sequence (Q9UNQ0 1-655): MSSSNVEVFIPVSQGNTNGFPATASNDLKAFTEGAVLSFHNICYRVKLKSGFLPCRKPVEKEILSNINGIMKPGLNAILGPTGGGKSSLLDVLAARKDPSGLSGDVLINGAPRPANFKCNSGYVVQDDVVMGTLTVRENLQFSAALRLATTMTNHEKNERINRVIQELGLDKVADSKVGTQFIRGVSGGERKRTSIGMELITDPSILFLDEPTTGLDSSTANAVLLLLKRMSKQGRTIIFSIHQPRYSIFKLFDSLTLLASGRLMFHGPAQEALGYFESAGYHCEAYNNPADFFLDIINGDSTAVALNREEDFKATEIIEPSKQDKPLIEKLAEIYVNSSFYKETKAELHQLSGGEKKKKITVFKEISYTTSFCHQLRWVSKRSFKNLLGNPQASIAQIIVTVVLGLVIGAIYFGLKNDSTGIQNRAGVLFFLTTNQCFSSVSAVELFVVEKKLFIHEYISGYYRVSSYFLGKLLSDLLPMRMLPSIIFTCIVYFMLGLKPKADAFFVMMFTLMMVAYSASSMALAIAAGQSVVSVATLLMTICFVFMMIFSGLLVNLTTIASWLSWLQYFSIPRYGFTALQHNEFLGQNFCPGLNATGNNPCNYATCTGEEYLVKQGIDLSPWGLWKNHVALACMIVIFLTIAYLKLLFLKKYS
In words: Bioluminescence imaging (BLI) assay in HEK293/ABCG2/fLuc cells.
Conditions: not given
The protocol:
HEK293/ABCG2/fLuc cells were plated into 96-well plates at a density of 4×10^4 cells/100 μL per well and were allowed to attach overnight. The following day, 10 μL of each compound or the control solvent was transferred from a compound library in a 96-well, high-throughput format into the wells using a multichannel pipette. […] Images were taken every 5 minutes for ˜1 h. Light output from each well was quantified at the 40 min time point after initiation of imaging, and the signal-to-background (S/B) ratio of the light output from each compound divided by that from the control well was calculated. This S/B ratio serves as an indicator of the potency of ABCG2 inhibition, the mechanism by which BLI signal is enhanced.
Images were taken every 5 min for ˜1 h, and light output from each well at the 40 min time point was chosen for quantification. The SB ratio of the light output from each compound divided by that from the control well was calculated. This ratio was used as an indicator of the potency of ABCG2 inhibition, the mechanism by which BLI signal is enhanced.
The BLI signal-enhancing effect of selected ABCG2 inhibitors was evaluated within the range of 0.001 μM-100 μM, with HEK293/ABCG2/fLuc cells and 50 μg/mL D-luciferin. The data obtained at 40 min after imaging commencement were chosen arbitrarily to be plotted (FIG. 3).
As for `FC(F)(F)c1ccc2c(c1)N(CCCN1CCN(CCCl)CC1)c1ccccc1S2` [fluphenazine N-mustard], the “Fold (BLI enhancement, S/B ratio over control)” value turned out to be 3.6 fold.
Consider `COc1cc2nc(N3CCN(C(=O)C4COc5ccccc5O4)CC3)nc(N)c2cc1OC` (stereo not shown) [doxazosin mesylate], for which the negative-log IC50 (pIC50) was 5.10.
For the molecule `Cl.Cl.OCCN1CCN(CCCN2c3ccccc3Sc3ccc(C(F)(F)F)cc32)CC1` [flufenazine hydrochloride], the “Fold (BLI enhancement, S/B ratio over control)” value amounted to 4.3 fold.

The series is the same for the next values; noted with them: Table 2; HEK293/ABCG2/fLuc cells, compound approximately 17 μM, ~50 μg/mL D-luciferin, 40 min time point.
Turning to `CC[C@H]1/C=C/C=C/C[C@@H](C)[C@H](O)[C@@](C)(O)C(=O)[C@@H](C)[C@H](O)[C@@H](C)C(=O)[C@@H](C)[C@H](O)[C@@H](C)/C=C/C(=O)O[C@@H]2[C@H](C)[C@H](CC1)O[C@]1(CC[C@H](C)[C@H](C[C@@H](C)O)O1)[C@H]2C` [oligomycin], the “Fold (BLI enhancement, S/B ratio over control)” value amounted to 5.0 fold.
Take `C[C@]12CC[C@@H]3c4ccc(O)cc4CC[C@H]3[C@@H]1CC[C@@H]2O` [13-estradiol]: the “Fold (BLI enhancement, S/B ratio over control)” value is 4.2 fold.
On to `COc1ccc2c3c([nH]c2c1)C(C)=NCC3` [harmaline], for which the “Fold (BLI enhancement, S/B ratio over control)” value came to 8.8 fold.
Regarding antimycin, the “Fold (BLI enhancement, S/B ratio over control)” value stood at 2.3 fold.

Staying with this series, now noted: Table 4; approximately 17 μM, 40 min time point.
For `CC[C@H]1/C=C/C=C/C[C@@H](C)[C@H](O)[C@@](C)(O)C(=O)[C@@H](C)[C@H](O)[C@@H](C)C(=O)[C@@H](C)[C@H](O)[C@@H](C)/C=C/C(=O)O[C@@H]2[C@H](C)[C@H](CC1)O[C@]1(CC[C@H](C)[C@H](C[C@@H](C)O)O1)[C@H]2C` [oligomycin], the “Fold (BLI enhancement), previously unknown compounds” value (“Fold … previously unknown compounds” for short) came to 5.0 fold.
As to `COc1ccc2c3c([nH]c2c1)C(C)=NCC3` [harmaline], the “Fold … previously unknown compounds” value was determined as 8.8 fold.

Staying with this series, now noted: human.
As for `Cc1cc(O)c2c(=O)c3c(O)cc(O)c4c5c(O)cc(O)c6c(=O)c7c(O)cc(C)c8c1c2c(c34)c(c78)c65` [hypericin], the “Fold (BLI enhancement, S/B ratio over control)” value was 3.3 fold.
For the molecule `CN1C[C@H](C(=O)N[C@]2(C)O[C@@]3(O)[C@@H]4CCCN4C(=O)[C@H](Cc4ccccc4)N3C2=O)C[C@@H]2c3cccc4[nH]cc(c34)C[C@H]21` [dihydroergotamine mesylate], the “Fold … previously unknown compounds” value amounted to 9.6 fold and the “Fold (BLI enhancement, S/B ratio over control)” value is listed as 9.6 fold.

The series is the same for the next values; noted with them: human, 40 min, 17 μM.
As to `CCc1nn(CCCN2CCN(c3cccc(Cl)c3)CC2)c(=O)n1CCOc1ccccc1` [nefazodone hydrochloride], the “Fold (BLI enhancement, S/B ratio over control)” value worked out at 2.6 fold.
With `O=c1[nH]c2ccccc2n1CCCN1CCC(n2c(=O)[nH]c3cc(Cl)ccc32)CC1` [domperidone], the “Fold (BLI enhancement, S/B ratio over control)” value is recorded as 2.5 fold.
For `COc1cc2nc(N3CCN(C(=O)C4COc5ccccc5O4)CC3)nc(N)c2cc1OC` (stereo not shown) [doxazosin mesylate], the “BLI signal enhancement” value was determined as 16 fold.
As to `CC(C)(C)c1ccc(C(O)CCCN2CCC(C(O)(c3ccccc3)c3ccccc3)CC2)cc1` (stereo not shown) [terfenadine], the “Fold (BLI enhancement, S/B ratio over control)” value is listed as 4.2 fold.
`CN1CCCN=C1/C=C/c1cccs1` [pyrantel]: the “Fold (BLI enhancement, S/B ratio over control)” value worked out at 3.9 fold.
As to `CCC(C)(C)C(=O)O[C@H]1C[C@@H](C)C=C2C=C[C@H](C)[C@H](CC[C@@H]3C[C@@H](O)CC(=O)O3)[C@H]21` [simvastatin], the “Fold (BLI enhancement, S/B ratio over control)” value amounted to 2.7 fold.
Consider `COC(=O)[C@H]1[C@H]2C[C@@H]3c4[nH]c5cc(OC)ccc5c4CCN3C[C@H]2C[C@@H](OC(=O)c2cc(OC)c(OC)c(OC)c2)[C@@H]1OC` [reserpine], for which the “Fold (BLI enhancement), known compounds” value came to 5.4 fold and the “Fold (BLI enhancement, S/B ratio over control)” value is reported as 5.4 fold.
As for `COc1ccc(CCN2CCC(Nc3nc4ccccc4n3Cc3ccc(F)cc3)CC2)cc1` [astemizole], the “Fold (BLI enhancement, S/B ratio over control)” value is reported as 2.8 fold.
Same read-out and setting: the figure for `CC1(C)O[C@@H]2C[C@H]3[C@@H]4CCC5=CC(=O)CC[C@]5(C)[C@@]4(F)[C@@H](O)C[C@]3(C)[C@]2(C(=O)CCl)O1` [halcinonide] is 2.2 fold; for `COc1ccccc1OCCNCC(O)COc1cccc2[nH]c3ccccc3c12` (stereo not shown) [carvedilol] it is 10.0 fold; for `O=C(C1CCCCC1)N1CC(=O)N2CCc3ccccc3C2C1` (stereo not shown) [praziquantel] it is 3.3 fold.
As to `Fc1ccc(C(c2ccc(F)cc2)N2CCN(C/C=C/c3ccccc3)CC2)cc1` [flunarizine hydrochloride], the “Fold (BLI enhancement, S/B ratio over control)” value came to 2.9 fold.
As for `COc1ccc2c(c1OC)C(=O)O[C@@H]2[C@H]1c2c(cc3c(c2OC)OCO3)CCN1C` [noscapine hydrochloride], the “Fold (BLI enhancement, S/B ratio over control)” value is given as 2.3 fold.
Regarding `COc1ccc(/C=C/C(=O)c2ccc(OC)cc2OC)cc1` [metochalcone], the “Fold (BLI enhancement, S/B ratio over control)” value turned out to be 2.8 fold.
As to `Cn1c(=O)c2[nH]c(C3CCCC3)nc2n(C)c1=O` [8-cyclopentyltheophylline], the “Fold (BLI enhancement, S/B ratio over control)” value was determined as 2.9 fold.
On to `COc1ccc([C@@H]2CC(=O)c3c(O)cc(O)cc3O2)cc1O` [hesperetin], for which the “Fold (BLI enhancement), known compounds” value worked out at 5.0 fold and the “Fold (BLI enhancement, S/B ratio over control)” value is reported as 5.0 fold.
In the case of `CCC(=O)O[C@]1(C(=O)CCl)[C@@H](C)C[C@H]2[C@@H]3CCC4=CC(=O)C=C[C@]4(C)[C@@]3(F)[C@@H](O)C[C@@]21C` [clobetasol propionate], the “Fold (BLI enhancement, S/B ratio over control)” value is given as 3.3 fold.
For the molecule `COc1ccc(C(=O)NCc2ccc(OCCN(C)C)cc2)cc1OC` [itopride hydrochloride], the “Fold (BLI enhancement, S/B ratio over control)” value worked out at 2.2 fold.
With `CCCCC(CC)CNC(=N)NC(=N)NCCCCCCNC(=N)NC(=N)NCC(CC)CCCC` (stereo not shown) [alexidine hydrochloride], the “Fold (BLI enhancement, S/B ratio over control)” value came to 3.1 fold.
Regarding `CC(=O)Oc1ccc2c(c1)CCC1C2CC[C@]2(C)C(=O)CCC12` (stereo partly shown) [estrone acetate], the “Fold (BLI enhancement, S/B ratio over control)” value was determined as 4.1 fold.
For the molecule `CN1C2CCCC1CC(NC(=O)c1nn(C)c3ccccc13)C2` (stereo not shown) [granisetron hydrochloride], the “Fold (BLI enhancement, S/B ratio over control)” value is on record as 2.2 fold.
Take `CC(C)=CCC[C@]1(C)C=Cc2c(O)c3c(c(CC=C(C)C)c2O1)O[C@]12C(=C[C@@H]4C[C@H]1C(C)(C)O[C@@]2(C/C=C(/C)C(=O)O)C4=O)C3=O` [gambogic acid]: the “Fold … previously unknown compounds” value came to 6.0 fold and the “Fold (BLI enhancement, S/B ratio over control)” value stood at 6.0 fold.
With `O=c1cc(-c2ccccc2)oc2cc(O)c(O)cc12` [6,7-dihydroxyflavone], the “Fold (BLI enhancement, S/B ratio over control)” value is listed as 2.7 fold and the “fold (BLI enhancement), additional previously known ABCG2 inhibitors” value was determined as 2.7 fold.
On to `COc1cc2ncnc(Nc3ccc(F)c(Cl)c3)c2cc1OCCCN1CCOCC1` [gefitinib], for which the “Fold (BLI enhancement), known compounds” value is given as 19.0 fold and the “Fold (BLI enhancement, S/B ratio over control)” value was 19.0 fold.
As to `Cc1c(-c2cnccn2)ssc1=S` [oltipraz], the “Fold (BLI enhancement, S/B ratio over control)” value turned out to be 3.2 fold.
Same read-out and setting: the same measure for `CCOC(=O)Nc1ccc2c(c1)N(C(=O)CCN1CCOCC1)c1ccccc1S2` [moricizine hydrochloride]: 2.3 fold; for `N#CC(c1ccc(Cl)cc1)c1c(Cl)cc(-n2ncc(=O)[nH]c2=O)cc1Cl` (stereo not shown) [diclazuril]: 2.4 fold; for `C=C1C[C@@H]2[C@H](CC[C@]3(C)C(=O)CC[C@@H]23)[C@@]2(C)C=CC(=O)C=C12` [exemestane]: 2.1 fold.
Turning to `CC(=O)SCC(Cc1ccccc1)C(=O)NCC(=O)OCc1ccccc1` (stereo not shown) [racecadotril], the “Fold (BLI enhancement, S/B ratio over control)” value is listed as 2.0 fold.
Same read-out and setting: the same measure for `COc1ccc(CN2CCN(C(c3ccc(F)cc3)c3ccc(F)cc3)CC2)c(OC)c1OC` [lomerizine hydrochloride]: 4.0 fold.
On to `CC(C)OC(=O)C(C)(C)Oc1ccc(C(=O)c2ccc(Cl)cc2)cc1` [fenofibrate], for which the “Fold (BLI enhancement, S/B ratio over control)” value is on record as 2.3 fold.
`CC(C)c1nc(N(C)S(C)(=O)=O)nc(-c2ccc(F)cc2)c1/C=C/[C@@H](O)C[C@@H](O)CC(=O)O` [rosuvastatin]: the “Fold (BLI enhancement, S/B ratio over control)” value is listed as 3.9 fold.
Turning to `COc1cc(/C=C/C(=O)CC(=O)/C=C/c2ccc(O)c(OC)c2)ccc1O` [curcumin], the “Fold (BLI enhancement), known compounds” value is 6.3 fold and the “Fold (BLI enhancement, S/B ratio over control)” value is on record as 6.3 fold.
As to `COC(=O)Nc1nc2ccc([S+]([O-])c3ccccc3)cc2[nH]1` (stereo not shown) [oxfendazole], the “Fold (BLI enhancement, S/B ratio over control)” value came to 2.1 fold.
For `CCCc1nn(C)c2c(=O)[nH]c(-c3cc(S(=O)(=O)N4CCN(C)CC4)ccc3OCC)nc12` [sildenafil], the “Fold … previously unknown compounds” value is 6.6 fold and the “Fold (BLI enhancement, S/B ratio over control)” value was 6.6 fold.
Regarding `CCCn1c(=O)c2[nH]c(C3CCCC3)nc2n(CCC)c1=O` [1,3-dipropyl-8-cyclopentylxanthine], the “Fold (BLI enhancement, S/B ratio over control)” value worked out at 4.3 fold.

The term pIC50 denotes −log10 of the IC50, conventionally taken in molar units. A low value points to a high IC50.

Source of the values: patent US20150148256A1, “BIOLUMINESCENCE IMAGING-BASED SCREENING ASSAY AND INHIBITORS OF ABCG2” (THE JOHNS HOPKINS UNIVERSITY, priority 2008, published 2015).
